From ChEMBL document CHEMBL4814003, “Novel dual-mode antitumor chlorin-based derivatives as potent photosensitizers and histone deacetylase inhibitors for photodynamic therapy and chemotherapy” (Eur J Med Chem, 2021)

What was measured:
A549 [1] = assay: Dark toxicity in human A549 cells assessed as reduction in cell viability incubated under dark for 48 hrs measured after 48 hrs by CCK8 assay; format: functional, cell-based; conditions: A549, 48 h
[2] = Drug uptake in human A549 cells assessed as compound localization in mitochondria at 0.1 uM measured after 24 hrs by Mitotracker Green FM based laser confocal microscopy; format: ADME; conditions: a549, 24 h
A549 [3] = assay: Induction of apoptosis in human A549 cells assessed as apoptotic cells at 0.01 uM in presence of light irradiation incubated for 48 hrs by annexin V-FITC staining based flow cytometry; format: functional
[4] = target: T1, Polyamine deacetylase HDAC10 (Homo sapiens, UniProt Q969S8); assay: Inhibition of human recombinant HDAC10 using Ac-Leu-Gly-Lys(Ac)-AMC as substrate by measuring fluorescence intensity incubated for 30 mins by microplate reader assay
T1 sequence (Q969S8 whole entry): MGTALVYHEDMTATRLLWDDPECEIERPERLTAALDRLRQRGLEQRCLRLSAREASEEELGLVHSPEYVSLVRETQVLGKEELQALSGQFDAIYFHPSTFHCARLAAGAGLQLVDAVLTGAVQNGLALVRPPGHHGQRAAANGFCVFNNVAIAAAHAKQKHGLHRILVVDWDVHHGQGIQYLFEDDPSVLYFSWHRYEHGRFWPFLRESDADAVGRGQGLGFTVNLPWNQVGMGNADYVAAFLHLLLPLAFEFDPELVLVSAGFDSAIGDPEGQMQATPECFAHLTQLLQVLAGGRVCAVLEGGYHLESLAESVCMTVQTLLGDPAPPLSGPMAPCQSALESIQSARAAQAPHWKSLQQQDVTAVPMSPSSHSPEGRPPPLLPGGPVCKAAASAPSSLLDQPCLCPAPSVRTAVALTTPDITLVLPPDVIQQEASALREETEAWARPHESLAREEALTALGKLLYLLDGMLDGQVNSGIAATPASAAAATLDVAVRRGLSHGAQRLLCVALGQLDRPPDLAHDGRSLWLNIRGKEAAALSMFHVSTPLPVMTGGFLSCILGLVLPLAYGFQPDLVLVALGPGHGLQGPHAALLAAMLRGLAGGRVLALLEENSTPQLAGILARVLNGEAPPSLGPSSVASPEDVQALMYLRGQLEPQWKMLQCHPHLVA

[5] = Drug uptake in human A549 cells assessed as compound localization in golgi at 0.1 uM measured after 24 hrs by Golgi tracker Green dye based laser confocal microscopy; format: ADME, subcellular, Golgi body; conditions: a549, 24 h
HCT-116 = assay: Phototoxicity in human HCT-116 cells assessed as reduction in cell viability irradiated 10 j/cm2 for 24 hrs followed by incubated for 24 hrs by CCK8 assay; format: functional, cell-based; conditions: HCT-116, light or radiation study
[6] = Drug uptake in human A549 cells assessed as compound localization in lysosome at 0.1 uM measured after 24 hrs by Lysotracker Green DND-26 dye based laser confocal microscopy; format: ADME, subcellular; conditions: a549, 24 h
[7] = Drug uptake in human A549 cells after 24 hrs by fluorescence spectrophotometer analysis relative to tala-porfin; format: ADME, cell-based; conditions: a549, 24 h
A549 [8] = assay: Induction of reactive oxygen species generation in human A549 cells assessed as mean count value at 0.01 uM incubated for 24 hrs by DCFH-DA staining based fluorescence microscopy assay; format: functional

Drug uptake [2]: Active
IC50 [4]: > 100000 nM
Drug uptake [5]: Active
Drug uptake [6]: Active
fold change (FC) [7]: 9
Structure (SMILES): C=Cc1c(C)c2cc3nc(c(C(=O)OC)c4[nH]c(cc5nc(cc1[nH]2)C(C)=C5CC)c(C)c4C(=O)OC)[C@@H](CCC(=O)Nc1ccc(C(=O)Nc2ccccc2N)cc1)[C@@H]3C
IC50 (A549 [1]): 300 nM
Activity (A549 [3]): 27.32%
IC50 (HCT-116): 6 nM
Activity (A549 [8]): 770.81
